Laboratory results from ChEMBL document CHEMBL3872231, “Design, synthesis, and biological evaluation of fluorinated imidazo[1,2-a]pyridine derivatives with potential antipsychotic activity” (Eur J Med Chem, 2016).
The source made the active and inactive calls. The rule behind the calls is not given here.

Key:
HepG2 [1] = experiment: (§1) Hepatotoxicity in human HepG2 cells assessed as intracellular ATP level after 48 hrs by luminescence based ATP detection assay; assay type: toxicity, cell-based; conditions: hepg2, 48 h
HepG2 [2] = experiment: (§2) Hepatotoxicity in human HepG2 cells assessed as intracellular ATP level after 24 hrs by luminescence based ATP detection assay; assay type: toxicity, cell-based; conditions: hepg2, 24 h
HepG2 [3] = experiment: (§3) Hepatotoxicity in human HepG2 cells assessed as decrease in cell viability after 48 hrs by PrestoBlue assay; assay type: toxicity, cell-based; conditions: hepg2, 48 h
[4] = molecular target: T1, GABA-A receptor; alpha-1/beta-2/gamma-2 (Homo sapiens) (UniProt P14867+P47870+P18507); experiment: Positive allosteric modulation of human recombinant GABA-A receptor alpha1beta2gamma2 expressed in HEK293 cells assessed as potentiation of GABA induced chloride currents at 1 uM treated every 60 secs measured for 7 secs by electrophysiological method relative to GABA; assay type: cell-based
[5] = molecular target: T2, GABA-A receptor; alpha-1/beta-2/gamma-2 (Homo sapiens, UniProt P14867+P18507+P47870); experiment: Positive allosteric modulation of human recombinant GABA-A receptor alpha1beta2gamma2 expressed in HEK293 cells assessed as potentiation of GABA induced chloride currents treated every 60 secs measured for 7 secs by electrophysiological method; assay type: cell-based
T2 sequence (P14867 whole entry): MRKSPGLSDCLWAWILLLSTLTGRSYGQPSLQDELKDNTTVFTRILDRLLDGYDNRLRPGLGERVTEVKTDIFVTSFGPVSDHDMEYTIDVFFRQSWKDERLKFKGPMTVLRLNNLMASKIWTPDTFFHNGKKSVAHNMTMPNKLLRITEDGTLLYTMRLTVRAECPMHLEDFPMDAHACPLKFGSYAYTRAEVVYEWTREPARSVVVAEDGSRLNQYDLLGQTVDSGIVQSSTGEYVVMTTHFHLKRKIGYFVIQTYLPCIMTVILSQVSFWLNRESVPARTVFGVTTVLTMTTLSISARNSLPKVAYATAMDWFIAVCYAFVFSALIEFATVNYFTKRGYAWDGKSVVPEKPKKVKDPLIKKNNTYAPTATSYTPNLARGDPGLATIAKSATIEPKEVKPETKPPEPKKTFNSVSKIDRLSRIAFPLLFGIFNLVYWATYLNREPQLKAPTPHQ
T2 sequence (P47870 whole entry): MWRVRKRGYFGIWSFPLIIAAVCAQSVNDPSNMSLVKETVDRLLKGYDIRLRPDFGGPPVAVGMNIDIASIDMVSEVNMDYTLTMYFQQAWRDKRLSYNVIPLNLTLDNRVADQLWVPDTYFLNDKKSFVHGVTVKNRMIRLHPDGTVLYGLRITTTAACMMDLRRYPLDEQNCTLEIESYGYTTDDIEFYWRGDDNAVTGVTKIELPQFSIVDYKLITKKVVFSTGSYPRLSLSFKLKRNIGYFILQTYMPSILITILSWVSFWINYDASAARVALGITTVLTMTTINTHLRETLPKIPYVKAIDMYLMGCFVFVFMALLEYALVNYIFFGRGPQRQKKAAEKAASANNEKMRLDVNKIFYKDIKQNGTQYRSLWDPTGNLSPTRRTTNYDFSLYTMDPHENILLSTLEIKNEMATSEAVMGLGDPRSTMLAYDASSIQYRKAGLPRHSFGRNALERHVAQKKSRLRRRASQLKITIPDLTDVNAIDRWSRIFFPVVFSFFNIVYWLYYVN
T2 sequence (P18507 whole entry): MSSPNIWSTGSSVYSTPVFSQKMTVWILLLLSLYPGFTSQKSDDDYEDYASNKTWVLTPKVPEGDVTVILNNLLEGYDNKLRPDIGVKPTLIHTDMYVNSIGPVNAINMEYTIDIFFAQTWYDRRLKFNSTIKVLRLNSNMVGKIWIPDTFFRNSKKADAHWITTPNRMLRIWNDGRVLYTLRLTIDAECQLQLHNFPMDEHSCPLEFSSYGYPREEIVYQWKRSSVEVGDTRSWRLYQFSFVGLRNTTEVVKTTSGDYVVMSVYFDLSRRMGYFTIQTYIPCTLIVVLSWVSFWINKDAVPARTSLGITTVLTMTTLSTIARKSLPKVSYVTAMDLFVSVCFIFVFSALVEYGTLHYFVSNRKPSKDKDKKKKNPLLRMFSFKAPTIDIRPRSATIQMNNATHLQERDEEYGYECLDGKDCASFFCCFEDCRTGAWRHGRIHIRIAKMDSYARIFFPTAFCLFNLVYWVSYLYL

HepG2 [6] = experiment: Hepatotoxicity in human HepG2 cells assessed as cell membrane damage after 24 hrs by luminescence assay; assay type: toxicity, cell-based; conditions: hepg2, 24 h
[7] = Drug metabolism in human liver microsomes assessed as 2-(6-fluoro-2-(4-(hydroxymethyl)phenyl)imidazo[1,2-a]pyridin-3-yl)-N,N-dimethylacetamide formation at 20 uM preincubated for 15 mins followed by NADPH addition measured after 60 mins by UPLC-MS/MS analysis; assay type: ADME; conditions: 1 h
[8] = Displacement of [3H]-flunitrazepam from rat brain GABA-A receptor benzodiazepine site after 20 mins by liquid scintillation counting
[9] = molecular target: T1, GABA-A receptor; alpha-1/beta-2/gamma-2 (Homo sapiens); experiment: Positive allosteric modulation of human recombinant GABA-A receptor alpha1beta2gamma2 expressed in HEK293 cells assessed as potentiation of GABA induced chloride currents at 1 uM treated every 60 secs measured for 7 secs by electrophysiological method; assay type: cell-based
HepG2 [10] = experiment: (§4) Hepatotoxicity in human HepG2 cells assessed as decrease in cell viability after 24 hrs by PrestoBlue assay; assay type: toxicity, cell-based; conditions: hepg2, 24 h
Rattus norvegicus [11] = organism: Rattus norvegicus; experiment: Potency index, ratio of zolpidem Ki to compound Ki for rat brain GABA-A receptor benzodiazepine site
HepG2 [12] = experiment: (§5) Hepatotoxicity in human HepG2 cells assessed as loss of mitochondrial membrane potential after 24 hrs by JC-1 staining based fluorescence assay; assay type: toxicity, cell-based; conditions: hepg2, 24 h
HepG2 [13] = experiment: Hepatotoxicity in human HepG2 cells assessed as cell membrane damage after 48 hrs by luminescence assay; assay type: toxicity, cell-based; conditions: hepg2, 48 h
[14] = Drug level in human liver microsomes treated with 20 uM of zolpidem preincubated for 15 mins followed by NADPH addition measured after 60 mins by UPLC-MS/MS analysis; assay type: ADME; conditions: 1 h
[15] = Drug level in human liver microsomes treated with 20 uM of 2-(6-fluoro-2-p-tolylimidazo[1,2-a]pyridin-3-yl)-N,N-dimethylethanamide preincubated for 15 mins followed by NADPH addition measured after 60 mins by UPLC-MS/MS analysis; assay type: ADME; conditions: 1 h
[16] = Plasma elimination half life in human; assay type: ADME; conditions: read-out: beta t1/2
[17] = Metabolic stability in human liver microsomes at 20 uM preincubated for 15 mins followed by NADPH addition measured after 60 mins by UPLC-MS/MS analysis; assay type: ADME; conditions: 1 h
[18] = Drug metabolism in human liver microsomes assessed as 2-(2-(4-(hydroxymethyl)phenyl)-6-methylimidazo[1,2-a]pyridin-3-yl)-N,N-dimethylacetamide formation at 20 uM preincubated for 15 mins followed by NADPH addition measured after 60 mins by UPLC-MS/MS analysis; assay type: ADME; conditions: 1 h
Rattus norvegicus [19] = experiment: Antipsychotic activity in rat assessed as reversal of amphetamine-induced hyperlocomotion at 1 mg/kg, ip treated for 30 mins prior to test followed by amphetamine administration 15 mins prior to test by open field test; assay type: functional, organism-based
Rattus norvegicus [20] = experiment: Toxicity in rat assessed as decrease in spontaneous locomotor activity at 1 mg/kg, ip treated for 60 mins by open field test; assay type: organism-based; conditions: in vivo, 1 h
Rattus norvegicus [21] = experiment: Toxicity in rat assessed as effect on behavioral changes at 1 mg/kg, ip administered 60 mins; assay type: organism-based; conditions: in vivo, 1 h
Rattus norvegicus [22] = experiment: Antipsychotic activity in rat assessed as reversal of amphetamine-induced hyperlocomotion at 3 mg/kg, ip treated for 30 mins prior to test followed by amphetamine administration 15 mins prior to test by open field test; assay type: functional, organism-based
Rattus norvegicus [23] = experiment: Toxicity in rat assessed as cataleptogenic effects at 1 mg/kg, ip administered 60 mins; assay type: organism-based; conditions: in vivo, 1 h
Rattus norvegicus [24] = experiment: Toxicity in rat assessed as myorelaxant effects at 1 mg/kg, ip administered 60 mins; assay type: organism-based; conditions: in vivo, 1 h
Rattus norvegicus [25] = experiment: Antipsychotic activity in ip dosed rat assessed as reversal of amphetamine-induced hyperlocomotion administered 30 mins before administration of amphetamine measured for 15 mins by open field test; assay type: functional
Rattus norvegicus [26] = experiment: Antipsychotic activity in rat assessed as reversal of amphetamine-induced hyperlocomotion at 3 mg/kg, ip treated for 60 mins prior to test followed by amphetamine administration 15 mins prior to test by open field test; assay type: functional, organism-based
[27] = as §1; assay type: toxicity, cell-based; conditions: HepG2 cells
[28] = as §2; assay type: toxicity, cell-based; conditions: HepG2 cells
[29] = as §3; assay type: toxicity, cell-based; conditions: HepG2 cells
[30] = as §4; assay type: toxicity, cell-based; conditions: HepG2 cells
[31] = as §5; assay type: toxicity, cell-based; conditions: HepG2 cells

For `Cc1ccc(-c2nc3ccc(F)cn3c2CC(=O)N(C)C)cc1`, the Activity (HepG2 [1]) was “Non-Toxic”, the Activity (HepG2 [2]) was “Non-Toxic” and the Activity (HepG2 [3]) was “Non-Toxic”. The fold change (FC) [4] was 1.5, the EC50 [5] was 1270 nM and the Activity (HepG2 [6]) was “Non-Toxic”. For the same compound, the Drug metabolism [7] was “Metabolite_Detected”, the Ki [8] was 25 nM and the Activity [9] was “Active”. The Activity (HepG2 [10]) was “Non-Toxic”, the Ratio Ki (Rattus norvegicus [11]) was 1.8 and the Activity (HepG2 [12]) was “Non-Toxic”. For the same compound, the Activity (HepG2 [13]) was “Non-Toxic”.
For `CN(C)C(=O)Cc1c(-c2cccc(F)c2)nc2ccc(F)cn12`, the Ki [8] was 140 nM.
In the case of `Cc1ccc2nc(-c3ccc(CO)cc3)c(CC(=O)N(C)C)n2c1`, the Drug metabolism [14] is reported as “Metabolite_Detected”.
For `CN(C)C(=O)Cc1c(-c2ccc(F)cc2F)nc2ccc(F)cn12`, the Ki [8] was 180 nM.
In the case of `Cc1ccc(-c2nc3ccc(CO)cn3c2CC(=O)N(C)C)cc1`, the Drug metabolism [15] is reported as “Metabolite_Detected”.
`CN(C)C(=O)Cc1c(-c2cccc(F)c2)nc2ccc(C(F)(F)F)cn12` gave a Ki [8] of 730 nM.
Work on `CN(C)C(=O)Cc1c(-c2ccc(F)cc2F)nc2ccc(C(F)(F)F)cn12` yielded a Ki [8] of 830 nM.
Compound `CN(C)C(=O)Cc1c(-c2ccccc2)nc2ccc(F)cn12` has a Ki [8] of 130 nM.
With `CN(C)C(=O)Cc1c(-c2ccc(F)c(F)c2)nc2ccc(F)cn12` the Ki [8] was 57.5 to 58 nM.
`CN(C)C(=O)Cc1c(-c2ccc(F)cc2)nc2ccc(C(F)(F)F)cn12` gave a Ki [8] of 510 nM.
In the case of `Cc1ccc(-c2nc3ccc(C)cn3c2CC(=O)N(C)C)cc1` [ZOLPIDEM], the half-life [16] is reported as no more than 120 min, the Activity (HepG2 [1]) is reported as “Non-Toxic” and the Stability [17] is reported as “Stable”. For the same compound, the Activity (HepG2 [2]) was “Non-Toxic”, the Activity (HepG2 [3]) was “Non-Toxic” and the fold change (FC) [4] was 2.5. For the same compound, the Activity (HepG2 [6]) was “Non-Toxic”, the Ki [8] was 44 nM and the Activity (HepG2 [10]) was “Non-Toxic”. The Drug metabolism [18] was “Metabolite_Detected”, the Activity (HepG2 [12]) was “Non-Toxic” and the Activity (HepG2 [13]) was “Non-Toxic”. The Activity (Rattus norvegicus [19]) was “Active”.
In the case of `Cc1ccc2nc(-c3ccc(F)cc3)c(CC(=O)N(C)C)n2c1`, the Activity (HepG2 [1]) is reported as “Non-Toxic”, the Stability [17] is reported as “Stable” and the Activity (HepG2 [2]) is reported as “Non-Toxic”. The Activity (HepG2 [3]) was “Non-Toxic”, the Activity (Rattus norvegicus [20]) was “Toxic” and the fold change (FC) [4] was 1.9. For the same compound, the Activity (Rattus norvegicus [21]) was “Toxic”, the EC50 [5] was 238 nM and the Activity (HepG2 [6]) was “Non-Toxic”. The Ki [8] was 59.6 to 60 nM, the Activity [9] was “Active” and the Activity (HepG2 [10]) was “Non-Toxic”. For the same compound, the Activity (Rattus norvegicus [22]) was “Active”, the Activity (HepG2 [12]) was “Non-Toxic” and the Activity (HepG2 [13]) was “Non-Toxic”. For the same compound, the Activity (Rattus norvegicus [23]) was “Non-Toxic”, the Activity (Rattus norvegicus [24]) was “Non-Toxic” and the Activity (Rattus norvegicus [25]) was “Dose-dependent effect”. The minimal effective dose (Rattus norvegicus [25]; read-out: MED) was 1 mg/kg and the Activity (Rattus norvegicus [26]) was “Active”.
For `CN(C)C(=O)Cc1c(-c2ccc(F)cc2)nc2ccc(F)cn12`, the Activity (HepG2 [1]) was “Non-Toxic”, the Stability [17] was “Stable” and the Activity (HepG2 [2]) was “Non-Toxic”. For the same compound, the Activity (HepG2 [3]) was “Non-Toxic”, the fold change (FC) [4] was 1.8 and the EC50 [5] was 408 nM. The Activity (HepG2 [6]) was “Non-Toxic”, the Ki [8] was 55.6 to 56 nM and the Activity [9] was “Active”. The Activity (HepG2 [10]) was “Non-Toxic”, the Activity (HepG2 [12]) was “Non-Toxic” and the Activity (HepG2 [13]) was “Non-Toxic”.
`N#CC(C#N)=NNc1cccc(Cl)c1` [CARBONYL CYANIDE M-CHLOROPHENYLHYDRAZONE] gave an IC50 at 48 h [27] of 7.2 µM, an IC50 at 24 h [28] of 9.8 µM and an IC50 at 48 h [29] of 6 µM. For the same compound, the Activity (HepG2 [6]) was “Non-Toxic”, the IC50 at 24 h [30] was 22 µM and the IC50 at 24 h [31] was 36 µM. The Activity (HepG2 [13]) was “Non-Toxic”.
`CN(C)C(=O)Cc1c(-c2ccc(C(F)(F)F)cc2)nc2ccc(F)cn12` gave a Ki [8] of 68 nM.
With `CN(C)C(=O)Cc1c(-c2ccc(C(F)(F)F)cc2)nc2ccc(C(F)(F)F)cn12` the Ki [8] was 487 nM.
